Values after ≈ are worked out from the molar mass of the structure shown. Like-named read-outs stand apart in the source and are kept apart here.
What was measured:
[1] = system: Proteus rettgeri B006; experiment: In vitro MIC, Proteus rettgeri B006; type: cell-based; conditions: unit assumed
Excerpt: (§1) The in vitro activity of the herein-described compounds renders them useful for topical application in the form of ointments, creams and the like, or for sterilization purposes, e.g., sick room utensils.
(§2) The in vitro spectra of a number of 6-[α-(ω-guanidinoalkanoylamido)acylamido]penicillanic acids of this invention against certain gram-negative bacteria are presented in Table I below. […] Th compounds of Table I have the formula

[2] = system: Proteus mirabilis C020; experiment: In vitro MIC, Proteus mirabilis C020; type: cell-based; conditions: unit assumed
Excerpt: as §1, §2

[3] = system: Pseudo. aeruginosa 173; experiment: In vitro MIC, Pseudo. aeruginosa 173; type: cell-based, Pseudomonas aeruginosa; conditions: unit assumed
Excerpt: as §2

[4] = system: Proteus vulgaris A059; experiment: In vitro MIC, Proteus vulgaris A059; type: cell-based; conditions: unit assumed
Excerpt: as §2

[5] = system: Serratia marcescens A001; experiment: In vitro MIC, Serratia marcescens A001; type: cell-based; conditions: unit assumed
Excerpt: as §2

[6] = Urine levels and urinary recovery in dogs, single intramuscular dose
[7] = system: S. aureus; experiment: PD50 versus acute systemic S. aureus infection in mice; type: in vivo; conditions: for ED50: Staphylococcus aureus, 96 h, S. aureus, mice
Excerpt: (§3) Additionally, the compounds of this invention are active versus gram-positive and gram-negative bacteria in vivo via the parenteral route of administration in animals, including man. Their in vivo activity in animals, including man, by the oral route of administration is more limited as regards susceptible organisms. Nevertheless, oral in vivo activity against Escherichia coli and Staphylococcus aureus is a common property of many compounds of this invention. Table II below presents the comparative in vivo spectra of several compounds within the scope of this invention against D-α-aminobenzylpenicillin (Ampicillin).
(§4) The acute systemic infections in mice were produced by the intraperitoneal inoculation of standardized cultures suspended in 5% hog gastric mucin. Treatment with the drugs was initiated 0.5 hours after inoculation of the infecting organism. A second dose was administered 4 hours later. The PD50 values were calculated after a hold period of 4 days.

[8] = Serum levels in dogs, single intramuscular dose; conditions: for Serum Levels: intramuscular 25 mg./kg.
[9] = system: E. coli 266; experiment: In vitro MIC, E. coli 266, two-fold serial dilution; type: cell-based, Escherichia coli; conditions: unit assumed
Excerpt: as §2

[10] = system: Pseudo. aeruginosa 104; experiment: In vitro MIC, Pseudo. aeruginosa 104; type: cell-based, Pseudomonas aeruginosa; conditions: unit assumed
Excerpt: as §2

[11] = system: Escherichia coli 266; experiment: In vivo protection of mice versus Escherichia coli 266; conditions: Escherichia coli, 266, sc, 96 h, read-out: % Protection
Excerpt: as §3, §4

[12] = system: Proteus mirabilis C015; experiment: In vitro MIC, Proteus mirabilis C015; type: cell-based; conditions: unit assumed
Excerpt: as §2

[13] = system: Pseudo. aeruginosa 490; experiment: In vitro MIC, Pseudo. aeruginosa 490; type: cell-based, Pseudomonas aeruginosa; conditions: unit assumed
Excerpt: as §2

[14] = system: P. aeruginosa; experiment: PD50 versus acute systemic P. aeruginosa infection in mice; type: in vivo; conditions: for ED50: Pseudomonas aeruginosa, 96 h, read-out: PD50; for activity against Pseudomonas aeruginosa (in words): in vivo
Excerpt: as §3, §4

[15] = system: E. coli; experiment: PD50 versus acute systemic E. coli infection in mice; type: in vivo; conditions: for ED50: Escherichia coli, 96 h, E. coli, mice
Excerpt: as §3, §4

[16] = in vivo; conditions: dog, im, 25 mg/kg
[17] = 50 mg./kg., mice, subcutaneous route

CC1(C)S[C@@H]2[C@H](NC(=O)[C@H](NC(=O)CNC(=N)N)c3ccccc3)C(=O)N2[C@H]1C(=O)O [A, 6-[D-2-Phenyl-2-(Guanidinoacetamido)Acetamido]Penicillanic Acid]
MIC [1]: 12.5 µg/mL (≈ 27.9 µM)
MIC [2]: 1.56 µg/mL (≈ 3.48 µM)
MIC [3]: 1.56 µg/mL (≈ 3.48 µM)
MIC [4]: 1.56 µg/mL (≈ 3.48 µM)
MIC [5]: 6.25 µg/mL (≈ 13.9 µM)
concentration at 0.5 h ([6]; dog, urine, im, 25 mg/kg): 366 µg/mL
concentration at 1 h ([6]; dog, urine, im, 25 mg/kg): 710 µg/mL
concentration at 2 h ([6]; dog, urine, im, 25 mg/kg): 1020 µg/mL
concentration at 3 h ([6]; dog, urine, im, 25 mg/kg): 554 µg/mL
concentration at 4 h ([6]; dog, urine, im, 25 mg/kg): 219 µg/mL
concentration at 5 h ([6]; dog, urine, im, 25 mg/kg): 130 µg/mL
dose excreted ([6]; dog, urine, im, 25 mg/kg): 35.4%
Concentrations in Urine ([6]; dogs, intramuscular 25 mg./kg., 0 hours): 0 ng/mL
total urinary recovery of drug compared with [B] (in words) ([6]; parenteral, dogs): clearly superior
ED50 ([7]; oral): 68 mg/kg
ED50 ([7]; sc, subcutaneous): 13 ± 3.9 mg/kg
in vivo oral activity against S. aureus (in words) ([7]; oral): dual in vivo activity
concentration at 1 h ([8]; dog, serum, im, 0.05 mg/kg): 78 µg/mL
concentration at 2 h ([8]; dog, serum, im, 0.05 mg/kg): 48 µg/mL
concentration at 0.5 h ([8]; dog, serum, im, 25 mg/kg): 30.4 µg/mL
concentration at 1 h ([8]; dog, serum, im, 25 mg/kg): 26.2 µg/mL
concentration at 2 h ([8]; dog, serum, im, 25 mg/kg): 10.3 µg/mL
concentration at 3 h ([8]; dog, serum, im, 25 mg/kg): 2.1 µg/mL
Serum Levels ([8]; dogs, 0 hours): 0 ng/mL
Serum Levels ([8]; dogs, 4 hours): 0 ng/mL
Serum Levels ([8]; dogs, 6 hours): 0 ng/mL
blood levels of drug compared with [B] (in words) ([8]; parenteral, dogs): clearly superior
MIC [9]: 1.56 µg/mL (≈ 3.48 µM)
MIC [10]: 1.56 µg/mL (≈ 3.48 µM)
responders at 50 mg/kg [11]: 100%
MIC [12]: 1.56 µg/mL (≈ 3.48 µM)
MIC [13]: 1.56 µg/mL (≈ 3.48 µM)
ED50 ([14]; po): > 200 mg/kg
ED50 ([14]; sc): 41 ± 13 mg/kg
activity against Pseudomonas aeruginosa (in words) ([14]; mice): active
ED50 ([15]; oral): 50 mg/kg
ED50 ([15]; sc, subcutaneous): 6 mg/kg
in vivo oral activity against E. coli (in words) ([15]; oral): dual in vivo activity

CC1(C)S[C@@H]2[C@H](NC(=O)[C@H](NC(=O)NC(=N)N)c3ccccc3)C(=O)N2[C@H]1C(=O)O [B, 6-[D-2-phenyl-2-(3-guanylureido)acetamido]penicillanic acid]
concentration at 0.5 h [16]: 3.5 µg/mL
concentration at 1 h [16]: 3.6 µg/mL
concentration at 2 h [16]: 0.8 µg/mL
MIC [3]: 1.5 µg/mL (≈ 3.45 µM)
MIC [4]: 1.56 µg/mL (≈ 3.59 µM)
MIC [5]: 6.25 µg/mL (≈ 14.4 µM)
ED50 ([7]; oral): > 100 mg/kg
ED50 ([7]; sc, subcutaneous): 18 ± 9.8 mg/kg
in vivo oral activity against S. aureus (in words) ([7]; oral): lacks oral activity
MIC [9]: 3.1 µg/mL (≈ 7.13 µM)
MIC [10]: 2.5 µg/mL (≈ 5.75 µM)
responders at 50 mg/kg [11, 17]: 100%
MIC [12]: 0.78 µg/mL (≈ 1.8 µM)
MIC [13]: 1.5 µg/mL (≈ 3.45 µM)
ED50 ([14]; P. aeruginosa, oral, mice): > 200 mg/kg
ED50 ([14]; sc, P. aeruginosa, subcutaneous, mice): 41 ± 13 mg/kg
activity against Pseudomonas aeruginosa (in words) ([14]; mice): active
ED50 ([15]; oral): > 200 mg/kg
ED50 ([15]; sc, subcutaneous): 15 ± 6.5 mg/kg
in vivo oral activity against E. coli (in words) ([15]; oral): lacks oral activity

CN(CC(=O)N[C@@H](C(=O)N[C@@H]1C(=O)N2[C@@H]1SC(C)(C)[C@@H]2C(=O)O)c1ccccc1)C(=N)N [CH2 N(CH3)--C(NH)NH2, R=H, 6-{D-2-Phenyl-2-[(1-Methylguanidino)Acetamido]Acetamido}-Penicillanic Acid]
MIC [1]: 100 µg/mL (≈ 216 µM)
MIC [2]: 6.25 µg/mL (≈ 13.5 µM)
MIC [3]: 12.5 µg/mL (≈ 27 µM)
MIC [4]: 6.25 µg/mL (≈ 13.5 µM)
MIC [5]: 3.12 µg/mL (≈ 6.75 µM)
MIC [9]: 6.25 µg/mL (≈ 13.5 µM)
MIC [10]: 50 µg/mL (≈ 108 µM)
responders at 50 mg/kg [11]: 60%
MIC [12]: 6.25 µg/mL (≈ 13.5 µM)
MIC [13]: 3.12 µg/mL (≈ 6.75 µM)

CC1(C)S[C@@H]2[C@H](NC(=O)[C@H](NC(=O)CNC3=NCCN3)c3ccccc3)C(=O)N2[C@H]1C(=O)O [CH2 NH--.angle..vertline., R=H, 6-[D-2-Phenyl-2-(2-Imidazolinylaminoacetamido)Acetamido]Penicillanic Acid]
MIC [1]: 100 µg/mL (≈ 211 µM)
MIC [2]: 6.25 µg/mL (≈ 13.2 µM)
MIC [3]: 3.12 µg/mL (≈ 6.57 µM)
MIC [4]: 3.12 µg/mL (≈ 6.57 µM)
MIC [5]: 25 µg/mL (≈ 52.7 µM)
MIC [9]: 12.5 µg/mL (≈ 26.3 µM)
MIC [10]: 6.25 µg/mL (≈ 13.2 µM)
responders at 50 mg/kg [11]: 90%
MIC [12]: 3.12 µg/mL (≈ 6.57 µM)
MIC [13]: 3.12 µg/mL (≈ 6.57 µM)

CC1(C)S[C@@H]2[C@H](NC(=O)[C@H](NC(=O)c3ccc(NC(=N)N)cc3)c3ccccc3)C(=O)N2[C@H]1C(=O)O [NH--C(NH)NH2 [1st of 4], R=H]
MIC [1]: 25 µg/mL (≈ 49 µM)
MIC [2]: 12.5 µg/mL (≈ 24.5 µM)
MIC [3]: 0.78 µg/mL (≈ 1.53 µM)
MIC [4]: 6.25 µg/mL (≈ 12.2 µM)
MIC [5]: 3.12 µg/mL (≈ 6.11 µM)
MIC [9]: 3.12 µg/mL (≈ 6.11 µM)
MIC [10]: 0.78 µg/mL (≈ 1.53 µM)
responders at 50 mg/kg [11, 17]: 10%
MIC [12]: 3.12 µg/mL (≈ 6.11 µM)
MIC [13]: 0.78 µg/mL (≈ 1.53 µM)

CC1(C)S[C@@H]2[C@H](NC(=O)[C@H](NC(=O)c3cccc(NC(=N)N)c3)c3ccccc3)C(=O)N2[C@H]1C(=O)O [NH--C(NH)NH2 [2nd of 4], R=H]
MIC [1]: 12.5 µg/mL (≈ 24.5 µM)
MIC [2]: 25 µg/mL (≈ 49 µM)
MIC [3]: 1.56 µg/mL (≈ 3.06 µM)
MIC [4]: 3.12 µg/mL (≈ 6.11 µM)
MIC [5]: 12.5 µg/mL (≈ 24.5 µM)
MIC [9]: 3.12 µg/mL (≈ 6.11 µM)
MIC [10]: 1.56 µg/mL (≈ 3.06 µM)
responders at 50 mg/kg [11, 17]: 60%
MIC [12]: 6.25 µg/mL (≈ 12.2 µM)
MIC [13]: 0.78 µg/mL (≈ 1.53 µM)

CC1(C)S[C@@H]2[C@H](NC(=O)[C@H](NC(=O)C3CCC(NC(=N)N)CC3)c3ccccc3)C(=O)N2[C@H]1C(=O)O (stereo partly drawn) [NH--C(NH)NH2 [3rd of 4], R=H]
MIC [1]: 50 µg/mL (≈ 96.8 µM)
MIC [2]: 25 µg/mL (≈ 48.4 µM)
MIC [3]: 1.56 µg/mL (≈ 3.02 µM)
MIC [4]: 50 µg/mL (≈ 96.8 µM)
MIC [5]: 12.5 µg/mL (≈ 24.2 µM)
MIC [9]: 6.25 µg/mL (≈ 12.1 µM)
MIC [10]: 3.12 µg/mL (≈ 6.04 µM)
responders at 50 mg/kg [11, 17]: 50%
MIC [12]: 6.25 µg/mL (≈ 12.1 µM)
MIC [13]: 6.25 µg/mL (≈ 12.1 µM)

Source: US3972872A, “6-[α-(ω-Guanidinoalkanoylamido)acylamido]penicillanic acids” (Pfizer Inc., priority 1975, dated 1976)
